Results published in ChEMBL document CHEMBL1201862, “PubChem BioAssay data set” (2004).
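In this assay, cells in 96-well plates receive the compound at five concentrations for 48 hours. Endpoints are linearly interpolated between the surrounding concentrations. GI50 is the concentration that inhibits growth by half.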 The source made the active and inactive calls. Cut-off read from the data, not from the text of the source: active = GI50 up to about 1.1 µM and inactive = higher.

Columns and labels:
Experiment in all cases: growth of human tumour cells (NCI), 48 h
BT-549 = test system: BT-549
DMS-114 = test system: DMS-114
DLD-1 = test system: DLD-1
HOP-18 = test system: HOP-18
LXFL 529 = test system: LXFL 529
RXF 631 = test system: RXF 631
KM-20L2 = test system: KM-20L2
XF498 = test system: XF498
DMS-273 = test system: DMS-273

SMILES | GI50 (BT-549) | GI50 (DMS-114) | GI50 (DLD-1) | GI50 (LXFL 529) | GI50 (KM-20L2) | further results
Oc1c2c(nc3cc4c(cc13)OCO4)-c1ccccc1CCC2 | > 50 µM (inactive) | – | – | – | – | –
CCOC(=O)c1ccc(-c2cc(C)no2)[nH]1 | > 100 µM (inactive) | – | – | – | – | –
O=C(O)C(Cc1ccc(O)c([N+](=O)[O-])c1)N1C(=O)c2ccccc2C1=O (stereo not drawn) | > 100 µM (inactive) | – | – | – | – | –
CCOC(=O)C1(C#N)C2(C#N)C(N)=NC(ON=C(C)C)(ON=C(C)C)C12C#N (stereo not drawn) | > 100 µM (inactive) | – | – | – | – | –
O=C(N/N=C/c1ccc([N+](=O)[O-])cc1)Nc1ccc(Br)cc1 | > 100 µM (inactive) | – | – | – | – | –
CCN(CC)c1ccc2cc(-c3nnc(-c4ccccc4)[nH]3)c(=O)oc2c1 | 25.2 µM (inactive) | – | – | – | – | –
CN(C)CC(C)(C)CN1c2ccccc2Sc2ccccc21 | 14 µM (inactive) | – | – | – | – | –
C/C1=C/C(C)CC(C)OC(=O)C(C)NC(=O)C(Cc2ccc(O)c(I)c2)N(C)C(=O)CNC(=O)C(C)C1 (stereo not drawn) | < 0.01 µM (active) | – | – | – | – | –
C=C(C)C1CC=C(C)C2(C1)OCC(C)(C)C(C)O2 (stereo not drawn) | 17.3 µM (inactive) | – | – | – | – | –
Cc1ccc(NC(=O)CC/C(CC(=O)C(C)(C)C)=N\Nc2ccc([N+](=O)[O-])cc2[N+](=O)[O-])cc1C | – | 30 µM (inactive) | 47.6 µM (inactive) | 40.9 µM (inactive) | > 100 µM (inactive) | GI50 (HOP-18): > 100 µM (inactive); GI50 (RXF 631): > 100 µM (inactive)
CC(=O)OCC1OC(N2C(=O)NC(=O)C3C=C4CCCCC4=CC32)CC1OC(C)=O (stereo not drawn) | > 100 µM (inactive) | – | – | – | – | –
NC1=NN(c2ccccc2)C(=O)C1C(=O)CCC(=O)Nc1cccc(Cl)c1 (stereo not drawn) | – | > 100 µM (inactive) | > 100 µM (inactive) | > 100 µM (inactive) | > 100 µM (inactive) | GI50 (XF498): > 100 µM (inactive); GI50 (HOP-18): > 100 µM (inactive); GI50 (DMS-273): > 100 µM (inactive)
COC(=O)C1Cc2cccc(C)c2C1 (stereo not drawn) | > 100 µM (inactive) | – | – | – | – | –
CCOc1ccc(/C(Cl)=C(\C=O)c2ccc(OC)c(OC)c2)cc1OCC | – | 11 µM (inactive) | 68.7 µM (inactive) | 30.5 µM (inactive) | > 100 µM (inactive) | GI50 (XF498): 53.2 µM (inactive); GI50 (HOP-18): > 100 µM (inactive); GI50 (DMS-273): 45.8 µM (inactive)
COc1cc(C2C(Cl)C(=O)N2NC(=O)Cc2ccccc2)ccc1O (stereo not drawn) | – | 50.2 µM (inactive) | > 100 µM (inactive) | 70.6 µM (inactive) | > 100 µM (inactive) | GI50 (XF498): > 100 µM (inactive); GI50 (HOP-18): 40.3 µM (inactive); GI50 (DMS-273): > 100 µM (inactive)
CCCC(=O)OCC1OC(n2cc(F)c(=O)[nH]c2=O)CC1O (stereo not drawn) | 0.929 µM (active) | – | – | – | – | –

SMILES | GI50 (BT-549) | GI50 (DMS-114) | GI50 (DLD-1) | GI50 (LXFL 529) | GI50 (KM-20L2) | further results
N#CC(c1ccccn1)c1nc2ccccc2[nH]1 (stereo not drawn) | – | 51.5 µM (inactive) | 98.9 µM (inactive) | > 100 µM (inactive) | – | GI50 (XF498): 64.4 µM (inactive)
O=c1cc(-c2ccccc2)nc(/C=C(\O)c2ccncc2)n1-c1ccccc1 | – | > 100 µM (inactive) | > 100 µM (inactive) | > 100 µM (inactive) | > 100 µM (inactive) | GI50 (HOP-18): > 100 µM (inactive); GI50 (DMS-273): > 100 µM (inactive)
CCOc1ccc2ccc3cccnc3c2n1 | > 100 µM (inactive) | – | – | – | – | –
CCc1n[nH]c(=O)n1CCCCCCCCn1c(CC)n[nH]c1=O | > 100 µM (inactive) | – | – | – | – | –
N#CC1=C(N)OC2=C(CSc3ccccc32)C1c1ccc(Br)cc1 (stereo not drawn) | 10.7 µM (inactive) | – | – | – | – | –
O=C(N/N=C/c1ccc([N+](=O)[O-])cc1)Nc1ccc(C(=O)O)cc1 | 35.2 µM (inactive) | – | – | – | – | –
COc1ccc(C(C2=C(O)CC(C)OC2=O)C2=C(O)CC(C)OC2=O)cc1 (stereo not drawn) | – | > 100 µM (inactive) | > 100 µM (inactive) | > 100 µM (inactive) | > 100 µM (inactive) | GI50 (RXF 631): > 100 µM (inactive); GI50 (DMS-273): > 100 µM (inactive)
Cc1ccc(C(=O)/C=C2\Nc3ccccc3N=C2NC23CC4CC(CC(C4)C2)C3)cc1 | > 10 µM (inactive) | – | – | – | – | –
OCC(O)C(OC1OC(CO)C(O)C(O)C1O)c1nn(-c2ccc(F)cc2)c2nc3cc(Cl)c(Cl)cc3cc12 (stereo not drawn) | – | > 100 µM (inactive) | > 100 µM (inactive) | > 100 µM (inactive) | > 100 µM (inactive) | GI50 (XF498): > 100 µM (inactive)
COc1ccc2[nH]c3c4c(c5cc(C(C)(C)C)ccc5c3c2c1)C(=O)N(c1ccccc1)C4=O | – | > 100 µM (inactive) | 13.4 µM (inactive) | > 100 µM (inactive) | > 100 µM (inactive) | GI50 (HOP-18): 34.8 µM (inactive)
CCOC(=O)N/N=C(\CC)NO | > 100 µM (inactive) | – | – | – | – | –
O=C(/N=C(\Nc1ccccc1)SCCS/C(=N/C(=O)c1cccs1)Nc1ccccc1)c1cccs1 | – | 30.2 µM (inactive) | 40 µM (inactive) | 46.9 µM (inactive) | 41.9 µM (inactive) | GI50 (XF498): 34.4 µM (inactive); GI50 (DMS-273): 58.7 µM (inactive)
CC(C)NC(=O)OCCN=c1c2ccccc2ccc2ccccc12 | 49.4 µM (inactive) | – | – | – | – | –
c1ccc2c(c1)nc1ccccn12 | > 100 µM (inactive) | – | – | – | – | –
C[N+]12CCCCC1C(COc1cccc3cccnc13)CCC2 (stereo not drawn) | 42 µM (inactive) | – | – | – | – | –
CN(C)CCCCCNc1c2ccccc2nc2cccc([N+](=O)[O-])c12 | 0.000946 µM (active) | 0.00242 µM (active) | 0.00342 µM (active) | 0.0115 µM (active) | 0.0036 µM (active) | GI50 (XF498): 0.00277 µM (active); GI50 (HOP-18): 0.027 µM (active); GI50 (DMS-273): 0.00197 µM (active)
